Experimental data published in patent US20230374141A1, “COMBINATION THERAPY FOR ALPORT RENAL DISEASE” (Father Flanagan's Boys' Home Doing Business as Boys Town …, priority 2020, published 2023).
No end group written: not given here.

Legend:
mesangial cells = assay: Filopodia formation in cultured mesangial cells; assay type: cell-based
Excerpt: Thus, it appears that the al-null mesangial cells are refractive to activation of CDC42, which is consistent with the markedly attenuated effect on mesangial filopodial invasion, explaining why al integrin blockade attenuates ECM-mediated podocyte injury.

α1 null Alport mice = assay: Proteinuria (Bradford assay, normalized to urinary creatinine) in α1 null Alport mice; assay type: in vivo; conditions: ramipril-treated vs untreated α1-null Alport mice; total protein normalized to urinary creatinine
Method: FIG. 1. […] Urine was collected from the indicated treatment groups at the indicated ages. Total protein was measured by Bradford assay and normalized to urinary creatinine.
(§1) Autosomal Alport mice or al integrin null Alport (DKO) mice (both on the 129 Sv background) were given straight water or treated with ramipril (10 mg/kg/day in drinking water) starting at 3 weeks of age. Proteinuria (FIG. 1) and lifespan (FIG. 2) were measured. We were surprised to see the improvement of lifespan from 20 weeks in ramipril-treated Alport mice to >30 weeks in ramipril-treated DKO mice. Tripling the lifespan of the Alport mouse model (which lives to on average 10 weeks of age as is evident in FIG. 2) is unprecedented in the Alport field. Integrin α1-null Alport (DKO) mice treated with ramipril live twice as long as untreated DKO mice and 3 times as long as untreated Alport mice. Animals from the indicated treatment groups were allowed to live until they lost >10% of their peak body weight and then euthanized (a humane endpoint, considered age of death). DKO mice show a 60% increase in lifespan. […] If translated to humans (as did ramipril treatment starting at a young age) this therapy could portend survival to 60-70 years of age for Alport patients with severe mutations.

Autosomal Alport mice = assay: Lifespan of ramipril-treated autosomal Alport mice; assay type: in vivo; conditions: ramipril 10 mg/kg/day in drinking water from 3 weeks of age, 129 Sv, humane endpoint >10% loss of peak body weight
Method: as §1

DKO mice [1] = assay: Dual immunofluorescence of glomeruli for mesangial proteins in the GBM of DKO mice; assay type: in vivo
Excerpt: FIGS. 3A-3F are color dual immunofluorescence confocal images of glomeruli stained with antibodies against laminin α5 (a GBM marker) and laminin α2. FIGS. 3A-3C are untreated DKO mice. FIGS. 3D-3F are DKO mice treated with Ramipril. FIGS. 3A and 3D show laminin α5 data. FIGS. 3B and 3E show laminin α2 data. FIGS. 3C and 3F show a merge of the laminin α5 and laminin α2 data.
FIGS. 4A-4F are color dual immunofluorescence confocal images of glomeruli stained with antibodies against nidogen (a GBM marker) and collagen III. FIGS. 4A-4C are untreated DKO mice. FIGS. 4D-4F are DKO mice treated with Ramipril. FIGS. 4A and 4D show nidogen data. FIGS. 4B and 4E show collagen 3 α1 data. FIGS. […] show a merge of the nidogen and collagen 3 α1 data.
This evidence has obvious and important translational value. By preventing the invasion of the glomerular capillaries by mesangial filopodia, the deposition of mesangial proteins in the GBM is prevented. This prevents podocyte injury that is caused by the mesangial matrix.
If the ECM deposition in the GBM is indeed a significant contributor to glomerular pathology we would expect it would be delayed in the ramipril-treated DKO mice. To determine if this was indeed the case, we performed immunohistochemical analysis for laminin 211 dual stained with the GBM marker laminin α5. Specifically, Duan immunofluorescence analysis was performed on cryosections from 20 and 25 week old DKO/ramipril mice. Sections were immunostained using antibodies for laminin 211 and laminin α5 (a GBM marker). […] Between 20 and 25 weeks of age, however, GBM localization of laminin 211 became widespread as depicted in FIGS. 6A-6F. FIGS. 6A-6C are the 20-week data and FIGS. 6D-6F are the 25-week data.

[2] = test system: al integrin null Alport (DKO) mice; assay: Lifespan of ramipril-treated α1 integrin null Alport (DKO) mice; assay type: in vivo
Method: as §1

DKO mice [3] = assay: Glomerular filtration rate, MediBeacon transdermal LED approach, DKO mice; assay type: in vivo; conditions: ramipril-treated DKO mice, 25 weeks relative to 20 weeks of age; two mice
Method: Glomerular filtration rates (GFR) were measured using the MediBeacon (St Louis, MO) transdermal LED approach, which allows serial measurements to be conducted in the same animals. […] Serial GFR measures were made using two ramipril-treated DKO mice. GFR measures were at 20 and 25 weeks of age. Additional mice at additional timepoints of measure (to 30 weeks) will be added as part of the research plan to establish statistical significance.

[4] = ramipril-treated DKO mice at 10 weeks of age, untreated DKO had a significant amount

Molecule	formation of filopodia (mesangial cells; wild type mesangial cells)	formation of filopodia (mesangial cells; α1-null mesangial cells)	proteinuria (α1 null Alport mice)	lifespan (age of death) (Autosomal Alport mice)	collagen III in the GBM (DKO mice [1]; [4])	laminin 211 in the GBM (DKO mice [1]; [4])	GBM accumulation of laminin 211 (DKO mice [1]; ramipril-treated DKO mice, before 20 weeks of age)	GBM localization of laminin 211 (DKO mice [1]; ramipril-treated DKO mice, between 20 and 25 weeks of age)	lifespan (age of death) ([2]; ramipril 10 mg/kg/day in drinking water from 3 weeks of age, α1 integrin null Alport (DKO) mice, 129 Sv)	lifespan relative to untreated Alport mice ([2]; ramipril-treated DKO mice)	lifespan relative to untreated DKO mice ([2]; ramipril-treated DKO mice)	GFR (DKO mice [3])
endothelin-1: stimulus of filopodial formation in mesangial cells (CSCSSLMDKECVYFCHLDIIW; ends and bridges not checked; cysteine pairing not given here; UniProt P05305 53-73, looked up)	activates the formation of filopodia	do not respond	–	–	–	–	–	–	–	–	–	–
CCOC(=O)[C@H](CCc1ccccc1)N[C@@H](C)C(=O)N1[C@H](C(=O)O)C[C@@H]2CCC[C@@H]21 [ramipril]	–	–	markedly reduced	20 weeks	no laminin 211 or collagen III in the GBM	no laminin 211 or collagen III in the GBM	did not observe any significant GBM accumulation	widespread	> 30 weeks	3 times	twice as long	marked reduction
